“And” between values parts separate entries of the source, which are not always exact repeats. Equal entries are not always repeated. *: point of attachment. EDDnp = O=[N+]([O-])c1ccc(NCCN*)c([N+](=O)[O-])c1; AMC = Cc1cc(=O)oc2cc(N*)ccc12

Holding throughout (type): biochemical
Assay [1] deals with T1, Recombinant human furin (Homo sapiens, UniProt P09958). The conditions noted are these: 4 μM substrate; 10 mM MES, 1 mM CaCl2, 0.01% Triton X-100, pH 7.0, 36.5 °C.
The target in assay [2] is T1, Recombinant human furin. The conditions noted are these: for Km / kcat / kcat/Km / hydrolysis by furin (result in words, cell spans kcat, Km, kcat/Km and R): pH 7.
In assay [3] the target is T1, Recombinant human furin.

T1 sequence (P09958 108-715 limits assumed): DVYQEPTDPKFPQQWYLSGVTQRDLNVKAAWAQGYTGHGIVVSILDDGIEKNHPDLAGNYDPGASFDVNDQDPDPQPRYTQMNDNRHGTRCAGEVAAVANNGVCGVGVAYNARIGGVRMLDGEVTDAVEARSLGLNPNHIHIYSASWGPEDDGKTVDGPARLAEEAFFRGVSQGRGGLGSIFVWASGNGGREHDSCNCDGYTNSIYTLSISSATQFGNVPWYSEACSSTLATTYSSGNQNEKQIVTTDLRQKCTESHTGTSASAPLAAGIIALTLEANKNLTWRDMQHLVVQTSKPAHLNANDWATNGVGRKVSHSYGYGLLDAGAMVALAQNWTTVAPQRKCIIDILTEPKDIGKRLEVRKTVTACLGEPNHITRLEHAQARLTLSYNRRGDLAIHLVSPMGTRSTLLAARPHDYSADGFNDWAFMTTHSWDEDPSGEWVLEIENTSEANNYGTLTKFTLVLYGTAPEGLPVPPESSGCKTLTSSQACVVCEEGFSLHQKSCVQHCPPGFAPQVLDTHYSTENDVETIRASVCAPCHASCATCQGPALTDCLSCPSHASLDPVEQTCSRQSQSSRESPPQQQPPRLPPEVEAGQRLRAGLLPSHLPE

`[Cl-].[K+]` [KCl]: on Recombinant human furin [1], the “effect on the rate of hydrolysis of Abz-[…]-Q-EDDnp by furin” value (“effect on the rate” below) was “increased the rate of hydrolysis”.

`[Cl-].[Cl-].[Mg+2]` [Mg^2+, magnesium chloride]: at Recombinant human furin [1], the “effect on the rate” value is reported as “significant increase”.

`[Cl-].[Na+]` [NaCl]: the “effect on the rate” value at Recombinant human furin [1] was “no effect”.

Abz-GIRRKRSVSHQ-EDDnp [compound 19]: on Recombinant human furin [2], the “R: relative kcat/Km values in presence vs. absence of MgCl2” value (from here on “R: relative kcat/Km values”) was found to be 0.9; the Km was 0.42 µM and 0.39 µM; the kcat is 29.6 (30.3) s^−1; the kcat/Km is 70547 (77100) (mM.s)^−1.

For Abz-RERRRKKR↓GLFG-Q-EDDnp [peptide 48], at Recombinant human furin [2], the “R: relative kcat/Km values” value turned out to be 79, the kcat was 12.3(2.6) s^−1 and the kcat/Km is reported as 123000 (1555) (mM.s)^−1.

For the compound Abz-RKRSRRQVNTQ-EDDnp [peptide 1], in the assay with Recombinant human furin [2], the “R: relative kcat/Km values” value is reported as 44, the kcat is recorded as 11.3 (8.4) s^−1 and the kcat/Km was 56300 (1291) (mM.s)^−1. The “pK1 of pH-profile of furin hydrolysis” value in the assay with Recombinant human furin [3] was 5.46 and 5.67.

Consider Abz-RRRKKR↓GLFG-Q-EDDnp [compound 31], for which, on Recombinant human furin [2], the Km turned out to be 15.5 µM, the kcat was 5.0 s⁻¹ and the kcat/Km was determined as 322 mM/s.

In the case of Abz-SGRSRRAIDLQ-EDDnp [peptide 10], at Recombinant human furin [2], the “R: relative kcat/Km values” value came out at 3.0, the kcat is recorded as 6.2 (4.3) s^−1 and the kcat/Km is reported as 15923 (5328) (mM.s)^−1.

On to “Abz-SRRHKR↓FAGV-Q-EDDnp (Abz-SRRHKRFAGVQ-EDDnp) [peptide 32]”, for which, in the assay with Recombinant human furin [2], the “R: relative kcat/Km values” value is given as 60, the kcat was 2.4 (0.21) s^−1 and the kcat/Km is on record as 33857 (559) (mM.s)^−1. Also, in the assay with Recombinant human furin [3], the “pK1 of pH-profile of furin hydrolysis” value is 5.27 and 5.42.

As to “Ac-RVRR-{AMC} [compound 38, reference compound]”, on Recombinant human furin [2], the “R: relative kcat/Km values” value is reported as 0.1, the kcat is recorded as 0.59 (0.98) s^−1 and the kcat/Km is reported as 120 (1139) (mM.s)^−1.

On to GQRKKR↓ALDT [compound 40], for which, at Recombinant human furin [2], the “R: relative kcat/Km values” value was found to be 0.06, the kcat is 3.6 (3.9) s^−1 and the kcat/Km is given as 829 (14130) (mM.s)^−1.

Take HHRQRR↓SVSI [compound 37]: on Recombinant human furin [2], the “R: relative kcat/Km values” value stood at 0.1, the kcat was 28.9 (39.5) s^−1 and the kcat/Km is given as 9031 (116088) (mM.s)^−1.

Take HKREKR↓QAKH [compound 39]: at Recombinant human furin [2], the “R: relative kcat/Km values” value stood at 0.1, the kcat is recorded as 6.3 (6.9) s^−1 and the kcat/Km is on record as 2354 (17734) (mM.s)^−1.

Take HNRTKR↓STDG [compound 23]: on Recombinant human furin [2], the “R: relative kcat/Km values” value is 28; the Km was 0.95 µM and 0.87 µM; the kcat is given as 7.8 (0.26) s^−1; the kcat/Km is reported as 8210 (289) (mM.s)^−1.

On to HRRDKR↓SVAL [compound 17], for which, at Recombinant human furin [2], the “R: relative kcat/Km values” value was found to be 0.6, the kcat was 12.7 (9.5) s^−1 and the kcat/Km is 23091 (36615) (mM.s)^−1.

For the compound HRREKR↓SVAL [compound 16], at Recombinant human furin [2], the “R: relative kcat/Km values” value is recorded as 0.7; the Km was 0.2 µM and 0.22 µM; the kcat is given as 7.6 (12.2) s^−1; the kcat/Km is 38300 (55636) (mM.s)^−1.

Consider HRRQKR↓SVAL [compound 14], for which, at Recombinant human furin [2], the “R: relative kcat/Km values” value was 1.2; the Km is 0.37 µM and 0.28 µM; the kcat is 14.9 (9.2) s^−1; the kcat/Km was 40270 (32431) (mM.s)^−1.

Take KIRRRR↓DVVD [compound 26]: at Recombinant human furin [2], the “R: relative kcat/Km values” value stood at 8.9; the Km is 0.05 µM and 0.1 µM; the kcat was 3.1 (0.60) s^−1; the kcat/Km is recorded as 53448 (6000) (mM.s)^−1.

As for KKRKRR↓FLGF [compound 33], at Recombinant human furin [2], the “R: relative kcat/Km values” value is 4.2, the kcat was 1.1 (0.64) s^−1 and the kcat/Km was 2173 (512) (mM.s)^−1.

Consider KRRQRR↓RPPQ [compound 21], for which, at Recombinant human furin [2], the “hydrolysis by furin (result in words, cell spans kcat, Km, kcat/Km and R)” value is “Slow Hydrolysis”.

Consider LKRRRR↓DTQQ [compound 30], for which, on Recombinant human furin [2], the “R: relative kcat/Km values” value is 0.6, the kcat was 6.7 (0.61) s^−1 and the kcat/Km is 1303 (2184) (mM.s)^−1.

In the case of LRRRRR↓DAGN [compound 25], at Recombinant human furin [2], the “R: relative kcat/Km values” value is 9.9; the Km is 3.6 µM and 3.3 µM; the kcat is 12.3 (1.1) s^−1; the kcat/Km is 3455 (348) (mM.s)^−1.

Take LTRQRR↓SLLP [compound 8]: at Recombinant human furin [2], the “R: relative kcat/Km values” value was 1.3; the Km is 0.9 µM and 0.64 µM; the kcat is on record as 3.3 (1.8) s^−1; the kcat/Km was 3510 (2708) (mM.s)^−1.

On to MMRHRR↓ELQR [compound 7], for which, on Recombinant human furin [2], the “R: relative kcat/Km values” value turned out to be 1.7, the kcat is listed as 10.3 (16.2) s^−1 and the kcat/Km is 23409 (13508) (mM.s)^−1.

Consider NLRRRR↓DLVD [compound 28], for which, at Recombinant human furin [2], the “R: relative kcat/Km values” value amounted to 7.2, the kcat is on record as 3.5 (2.0) s^−1 and the kcat/Km is on record as 10606 (1470) (mM.s)^−1.

Turning to NTRSRR↓SVPV [compound 29], the “hydrolysis by furin (result in words, cell spans kcat, Km, kcat/Km and R)” value on Recombinant human furin [2] is listed as “Slow Hydrolysis”.

On to QIRAKR↓ELSK [compound 2], for which, at Recombinant human furin [2], the “R: relative kcat/Km values” value is 6.9, the kcat is 6.7 (9.7) s^−1 and the kcat/Km is 5583 (808) (mM.s)^−1.

For QSRRRR↓QTPP [compound 41], at Recombinant human furin [2], the “R: relative kcat/Km values” value was 0.05, the kcat is recorded as 3.4 (6.3) s^−1 and the kcat/Km is listed as 1547 (31067) (mM.s)^−1.

As for RKRRKR↓ELET [compound 27], at Recombinant human furin [2], the “R: relative kcat/Km values” value is 8.5, the kcat is on record as 4.3 (0.23) s^−1 and the kcat/Km is reported as 1400 (164) (mM.s)^−1.

For the compound RNRQKR↓FVLS [compound 42], at Recombinant human furin [2], the Km amounted to 0.59 µM, the kcat worked out at 0.20 s⁻¹ and the kcat/Km is 337 mM/s.

In the case of RRRAKR↓SPKH [compound 35], at Recombinant human furin [2], the “R: relative kcat/Km values” value is given as 6.2, the kcat is 5.3 (8.7) s^−1 and the kcat/Km was 4383 (710) (mM.s)^−1.

Regarding RRRDKR↓SVAL [compound 15], on Recombinant human furin [2], the “R: relative kcat/Km values” value was found to be 0.8; the Km was 0.41 µM and 0.39 µM; the kcat is reported as 12.2 (14.6) s^−1; the kcat/Km is listed as 29658 (37505) (mM.s)^−1.

Regarding RRRKKR↓GLSG [compound 45], at Recombinant human furin [2], the “R: relative kcat/Km values” value is 38, the kcat is listed as 6.7 (2.4) s^−1 and the kcat/Km is 30500 (797) (mM.s)^−1.

For the compound RRRKKR↓SLFG [compound 46], on Recombinant human furin [2], the “R: relative kcat/Km values” value was 54, the kcat is recorded as 7.6 (1.0) s^−1 and the kcat/Km is listed as 33043 (606) (mM.s)^−1.

Take RRRKKR↓SLSG [compound 47]: on Recombinant human furin [2], the “R: relative kcat/Km values” value worked out at 14, the kcat is reported as 4.5(0.92) s^−1 and the kcat/Km is given as 18833 (1333) (mM.s)^−1.

As for SIRHKR↓EPSV [compound 20], on Recombinant human furin [2], the “R: relative kcat/Km values” value is 0.9; the Km was 2.4 µM and 2.8 µM; the kcat is given as 1.6 (2.1) s^−1; the kcat/Km is 646 (729) (mM.s)^−1.

For the compound SKRSRR↓SVSV [compound 13], at Recombinant human furin [2], the “R: relative kcat/Km values” value stood at 1.5; the Km is 0.49 µM and 0.41 µM; the kcat is 18.3 (10.5) s^−1; the kcat/Km is given as 37347(25362) (mM.s)^−1.

In the case of SRRKRR↓DVTP [compound 6], on Recombinant human furin [2], the “R: relative kcat/Km values” value came to 3.2, the kcat is 9.9 (9.2) s^−1 and the kcat/Km is given as 66000 (20467) (mM.s)^−1.

In the case of SRRKRR↓SAST [compound 22], at Recombinant human furin [2], the “R: relative kcat/Km values” value stood at 38, the kcat is given as 11.1 (10.0) s^−1 and the kcat/Km is 76232 (1992) (mM.s)^−1.

Consider SRRSRR↓SLTV [compound 12], for which, on Recombinant human furin [2], the kcat is 6.2 (4.3) s^−1 and the kcat/Km is 15923 (5328) (mM.s)^−1.

Regarding SSRHRR↓ALDT [compound 36], at Recombinant human furin [2], the “R: relative kcat/Km values” value was found to be 0.3, the kcat is recorded as 7.1 (5.6) s^−1 and the kcat/Km is 1707 (6488) (mM.s)^−1.

As for THRTRR↓STSD [compound 24], on Recombinant human furin [2], the “R: relative kcat/Km values” value is listed as 11; the Km is 1.9 µM and 1.2 µM; the kcat is reported as 8.1 (0.44) s^−1; the kcat/Km is 4128 (370) (mM.s)^−1.

For TRRFRR↓SITE [compound 34], on Recombinant human furin [2], the “R: relative kcat/Km values” value is 1.3; the Km is 0.53 µM and 0.58 µM; the kcat is 19.8 (16.4) s^−1; the kcat/Km is 37358 (28362) (mM.s)^−1.

Turning to VQREKR↓AVGI [compound 18], at Recombinant human furin [2], the “R: relative kcat/Km values” value was found to be 3.2; the Km is 2.1 µM and 2.8 µM; the kcat is 2.7 (1.2) s^−1; the kcat/Km is recorded as 1290 (407) (mM.s)^−1.

With VRRRRR↓YALS [compound 43], on Recombinant human furin [2], the Km was 3.14 µM, the kcat was 0.60 s⁻¹ and the kcat/Km worked out at 193 mM/s.

In the case of VVRVRR↓ELLP [compound 5], at Recombinant human furin [2], the “R: relative kcat/Km values” value is listed as 3.8, the kcat is 16.6 (12.2) s^−1 and the kcat/Km was 13071 (3466) (mM.s)^−1.

The record behind these values is article PMC4821188 (Biological chemistry, 2010).
